Measurements: article PMC11278016, “Discovery of Prenyltransferase-Guided Hydroxyphenylacetic Acid Derivatives from Marine Fungus Penicillium sp. W21C371” (Marine Drugs, 2024)

Tests used:
[1] = molecular target: Escherichia coli β-glucuronidase (EcGUS) (Escherichia coli, UniProt P05804); test: EcGUS inhibition assay; format: biochemical; conditions: for IC50: EcGUS inhibition, mean ± SD, three independent experiments; for Ki′ (inhibition constant of the enzyme–substrate complex): EcGUS–substrate complex, secondary plot of Y-intercept versus [I]; for type of inhibition: Lineweaver–Burk plots; for Ki: free EcGUS, secondary plot of slope versus [I], Lineweaver–Burk, read-out: Ki (inhibition constant of the enzyme); for inhibition at 100 µM: preliminary screening at a concentration of 100 μM, read-out: relative inhibitory rate
Procedure: All isolates 1–17 were evaluated for their in vitro inhibitory activity against EcGUS, a potential target for the treatment of drug-induced gastrointestinal disorders, employing D-saccharic acid 1,4-lactone (DSL) as the positive control. […] In view of the potent inhibitory activity of 2 and 3 against EcGUS, their kinetic mechanisms of inhibition were determined using Lineweaver–Burk plots (Figure 5 and Table S1). The inhibition constants of the enzyme Ki and the enzyme–substrate complex Ki^′ were obtained by secondary plots of “slope versus [I]” and “Y-intercept versus [I]”, respectively. […] As a mixed-type inhibitor of EcGUS, 3 was supposed to bind either the free EcGUS or the EcGUS–substrate complex. […] To the best of our knowledge, 2 and 3 represent the first citridone and ergosterol derivatives with potent EcGUS-inhibitory activity. However, 2 and 3 were obtained in limited amount in the present study, preventing the in vivo evaluation of their EcGUS inhibition activity. The optimization of the fermentation and separation processes with the aim of increasing the yields of 2 and 3 is underway, which may help to accumulate greater amounts of the two compounds for further in-depth pharmacological studies.
Optical rotations were obtained with a Rudolph Research Autopol III automatic polarimeter. IR spectra were recorded on a Thermo Nicolet 6700 FT-IR microscope instrument (FT-IR microscope transmission) in KBr pellets. UV spectra were measured on a TU-1900 spectrometer (Persee, Beijing, China). Meanwhile, 1D and 2D-NMR spectra were obtained at 600 MHz for ^1H and 150 MHz for ^13C on a Bruker Avance 600 spectrometer, with solvent peaks used as references. HRESIMS data were measured on an Agilent-6210-LC/TOF mass spectrometer (Agilent Technologies, Inc., Santa Clara, CA, USA). EcGUS-inhibitory activity was measured spectrophotometrically using a SpectraMax Plus 384 microplate reader (Molecular Devices, San Jose, CA, USA). Column chromatography (CC) was performed on silica gel (SiO2; 200–300 mesh; Qingdao Marine Chemical Co., Ltd.), ODS C-18 gel (50 mm; YMC Co., Ltd., Kyoto, Japan), and MCI CHP20P gel (75–150 μm, Tokyo, Japan). Semi-preparative HPLC was performed on an Cosmosil 5C18-MS-II column (5 μm, 250 × 10 mm) with a Shimadzu LC-20AT system eluting with methanol/water or acetonitrile/water at a flow rate of 3 mL/min. Chiral separation was performed on a Chiralpak AD-H column (5 μm, 4.6 × 250 mm). Thin layer chromatography (TLC) was performed on precoated silica gel GF254 plates (Qingdao Marine Chemical Co., Ltd., Qingdao, China) and visualized by UV light and/or spraying with 10% H2SO4 in 95% EtOH, followed by heating. All solvents used were of analytical grade and obtained from commercially available sources. All reagents used for biological evaluation were obtained from Sigma-Aldrich (St. Louis, MO, USA).
The EcGUS inhibition assay was performed according to the method previously reported, employing DSL as the positive control. The results are presented as means ± SD for three independent experiments.

Candida albicans = test system: Candida albicans; design: method as in PMID 19160522; conditions: against Candida albicans; cited from earlier work
[2] = test system: methicillin-resistant Staphylococcus aureus (MRSA); design: method as in PMID 24643052; conditions: MRSA virulence factor; cited from earlier work

Sequence of Escherichia coli β-glucuronidase (EcGUS) (P05804 whole entry): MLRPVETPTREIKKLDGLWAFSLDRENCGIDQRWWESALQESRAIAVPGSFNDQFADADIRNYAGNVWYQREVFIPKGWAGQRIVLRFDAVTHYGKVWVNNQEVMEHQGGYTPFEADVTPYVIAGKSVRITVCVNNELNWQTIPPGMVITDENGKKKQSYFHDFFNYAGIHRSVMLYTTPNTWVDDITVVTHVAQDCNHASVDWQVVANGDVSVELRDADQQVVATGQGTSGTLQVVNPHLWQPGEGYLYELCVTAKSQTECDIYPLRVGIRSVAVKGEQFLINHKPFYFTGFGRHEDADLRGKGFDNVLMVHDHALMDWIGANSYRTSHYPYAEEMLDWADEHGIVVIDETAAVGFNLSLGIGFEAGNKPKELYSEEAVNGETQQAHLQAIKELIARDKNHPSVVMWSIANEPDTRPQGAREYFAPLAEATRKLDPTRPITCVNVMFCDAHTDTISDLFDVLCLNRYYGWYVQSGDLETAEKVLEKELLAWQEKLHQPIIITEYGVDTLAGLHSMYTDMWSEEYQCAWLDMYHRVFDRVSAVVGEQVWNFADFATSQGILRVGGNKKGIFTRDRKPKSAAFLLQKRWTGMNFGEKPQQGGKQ

Row | Compound | IC50 [1] | Ki′ (inhibition constant of the enzyme–substrate complex) [1] | type of inhibition [1] | Ki [1] | Vmax ([1]; inhibitor concentration 0.015 mM) | Vmax ([1]; inhibitor concentration 0.030 mM) | Vmax ([1]; inhibitor concentration 0.050 mM) | inhibition at 100 µM [1] | potentiation of miconazole activity (Candida albicans) | Vmax ([1]; inhibitor concentration 0.02 mM) | Vmax ([1]; inhibitor concentration 0.04 mM) | Vmax ([1]; inhibitor concentration 0.08 mM) | inhibition of staphyloxanthin biosynthesis [2]
1 | CC(=C[C@@H](C)[C@H]1CC[C@@H]2[C@]1(C)CC=C1[C@]23C=C[C@]2(C[C@@H](O)CC[C@]12C)OO3)[C@H](C)C(C)C [Compound 3, 5α,8α-epidioxy-23,24(R)-dimethylcholesta-6,9(11),22-trien-3β-ol] | 21.6 ± 0.76 µM | 48.80 µM | mixed-type | 89 µM | 29.05 ± 1.14 mg/μmol⋅min | 22.03 ± 1.06 mg/μmol⋅min | 18.22 ± 0.64 mg/μmol⋅min | > 60% | – | – | – | – | –
2 | CC1=CC2(C)Oc3c(-c4ccccc4)c[nH]c(=O)c3C2C1C (stereo not shown) [Compound 2, citridone A] | 44.6 ± 0.84 µM | 69.20 µM | non-competitive inhibitor | 76.3 µM | – | – | – | > 60% | potentiator of miconazole | 38.33 ± 2.97 mg/μmol⋅min | 32.36 ± 3.11 mg/μmol⋅min | 23.58 ± 2.49 mg/μmol⋅min | inhibit the biosynthesis of staphyloxanthin
3 | O=C(O)[C@@H](O)[C@H]1OC(=O)[C@H](O)[C@H]1O [DSL, D-saccharic acid 1,4-lactone, reference compound] | 47.9 ± 0.89 µM | – | – | – | – | – | – | – | – | – | – | – | –
